Counter-ions that a name gives are not always drawn. Like-named read-outs stand apart in the source and are kept apart here.
What was measured:
[1] = type: in vitro ADME
Text: These values are sufficiently high to make it possible to aim at the daily administration, from a transdermal patch, of a quantity of efaroxan base or hydrochloride in the mg range.
FIG. 4 represents the quantities of idazoxan base and hydrochloride released ex vivo using animal skins, in the case of aqueous alcoholic solutions according to the invention.

[2] = ex vivo permeation on animal skins after pretreatment with a promoter (reference batch CM586); type: in vitro ADME; conditions: ratio of quantity accumulated at 24 h, trial (skin pretreated with promoter) to reference batch CM586; as dexefaroxan base
Text: FIG. 3 represents the quantities expressed as dexefaroxan base of the accumulated quantities (μg/cm^2); it involves comparing the reference batch CM586 with or without individual pretreatment with promoters.

permeation index (PI) [2]	Compound	quantities accumulated at 24 hours ([1]; 24 h, 10 % m/v)	quantities accumulated at 24 hours [1]	further results
–	c1ccc2c(c1)OCC(C1=NCCN1)O2 (stereo not shown) [idazoxan hydrochloride, 2-(1,4-benzodiosan-2-yl)-2-imidazoline]	~0.25 mg/cm^2	–	–
–	CC[C@]1(C2=NCCN2)Cc2ccccc2O1 [dexefaroxan base]	–	~8.5 mg/cm^2	–
2.6	Sorbitan monooleate	–	–	–
–	CC[C@]1(C2=NCCN2)Cc2ccccc2O1 [dexefaroxan hydrochloride]	~1.0 mg/cm^2	–	–
2.4	Mannitan oleate	–	–	–
–	c1ccc2c(c1)OCC(C1=NCCN1)O2 (stereo not shown) [idazoxan base, 2-(1,4-benzodiosan-2-yl)-2-imidazoline]	–	~5 mg/cm^2	quantities released at 24 h, base form versus hydrochloride [1]: significantly higher

Reference: patent publication US20040022834A1, “Pharmaceutical oxan preparation” (priority 2000, published 2004)
